# Reference: US10464963B2, “Compounds from invasive Salvinias and methods of using the same” (STEPHEN F. AUSTIN STATE UNIVERSITY, priority 2013, dated 2019)
# Like-named read-outs stand apart in the source and are kept apart here.
# Tests used:
# [1] = Cytotoxicity assay (WST-8), MRC-5; type: cell-based, human; details: human
# Experimental: (§1) PANC-1 and MRC-5 was cultured in complete growth medium according to the ATCC protocols. Cells were grown at 37° C. and 5% CO2 in humidified air.
# (§2) Cytotoxicity of total extracts of S. molesta was tested against PANC-1, A549, PC-3, and MRC-5. Cytotoxicity of the fractions was determined using A549 cells, a human non-small lung cancer cell line. Fractions were tested at 25, 50, and 100 μg/mL. The isolated pure compounds were tested in each of the cultured human tumor and normal cell lines at various concentrations between 1 and 100 μM with three replications. Human tumor and normal cells were inoculated into 96 well microtiter plates in 90 μL at plating densities ranging from 5,000 to 40,000 cells/well (measured by Z2 Coulter Counter of Beckman) depending on the doubling time of individual cell lines. Cell growth and viability was measured by WST-8 (Water Soluble Tetrazolium) assays following a standard protocol (Cell Counting Kit-8, Dojindo Molecular, Maryland). The WST-8 assay measured the relative activity of mitochondrial reductase enzymes in viable cells. A control WST reading (T0) before treatment was measured, then cells were continuously exposed to isolates for 48 h. After WST added and incubated for 2 h, the amount of formazan was measured by using a microplate spectrophotometer (μQuant spectrophotometer, Bio-Tek Instruments, Inc., Vermont) at 450 nm. TC or TD represents the readings of the untreated control or with tested compounds. Percent cell-growth (G) and percent cell-growth inhibition (GI) was calculated as: G=(TD−T0/TC−T0)×100; GI=[1−(TD−T0/TC−T0)]×100 for which TD≥T0; and G=(TD−T0/T0)×100; GI=[1−(TD−T0/T0)]×100 for which TD≤T0. […] Cancer drug doxorubicin was used as the positive controls in the cell-based assays.
# [2] = tested on: human exocrine pancreatic cancer (BxPC-3); test: Cytotoxicity assay (WST-8), BxPC-3; type: cell-based
# [3] = tested on: human non-small cell lung cancer (A549); test: Cytotoxicity assay (WST-8), A549; type: cell-based
# Experimental: as §1, §2
# [4] = tested on: human exocrine pancreatic cancer (PANC-1); test: Cytotoxicity assay (WST-8), PANC-1; type: cell-based
# Experimental: as §1, §2
# human leukemia (HL-60) = test: Cytotoxicity assay (WST-8), HL-60; type: cell-based
# [5] = tested on: human prostate cancer (PC-3); test: Cytotoxicity assay (WST-8), PC-3; type: cell-based
# Experimental: as §1, §2
# [6] = tested on: normal human lung fibroblasts cells (MRC-5); test: Cytotoxicity assay (WST-8), MRC-5; type: cell-based
# Experimental: as §1, §2
# [7] = Homo sapiens, BXPC-3, 48 h, read-out: Cytotoxic activity (GI50) BxPC-3
# [8] = Homo sapiens, BXPC-3, Table 1, read-out: Activity against human exocrine pancreatic tumor BxPC-3 (GI50) (converted)
# [9] = Homo sapiens, A549, 48 h, read-out: Cytotoxic activity (GI50) A549
# [10] = Homo sapiens, A549, Table 1, read-out: Activity against human non-small cell lung tumor A549 (GI50) (converted)
# [11] = Homo sapiens, PANC-1, 48 h, read-out: Cytotoxic activity (GI50) PANC-1
# [12] = Homo sapiens, PANC-1, Table 1, read-out: Activity against human exocrine pancreatic tumor PANC-1 (GI50)
# [13] = Homo sapiens, HL-60, 48 h, read-out: Cytotoxic activity (GI50) HL-60
# [14] = Homo sapiens, HL-60, Table 1, read-out: Activity against human leukemia HL-60 (GI50) (converted)
# [15] = Homo sapiens, 48 h, read-out: Cytotoxic activity (GI50) PC-3
# [16] = Homo sapiens, Table 1, read-out: Activity against human prostate tumor PC-3 (GI50) (converted)
# [17] = Homo sapiens, BXPC-3, Table 7, WST-8, 48 h exposure, mean ± S.D., read-out: Cytotoxic activity (GI50) BxPC-3
# [18] = Homo sapiens, A549, Table 7, WST-8, 48 h exposure, mean ± S.D., read-out: Cytotoxic activity (GI50) A549
# [19] = Homo sapiens, PANC-1, Table 7, WST-8, 48 h exposure, mean ± S.D., read-out: Cytotoxic activity (GI50) PANC-1
# [20] = Homo sapiens, HL-60, Table 7, WST-8, 48 h exposure, mean ± S.D., read-out: Cytotoxic activity (GI50) HL-60
# [21] = Homo sapiens, Table 7, WST-8, 48 h exposure, mean ± S.D., read-out: Cytotoxic activity (GI50) PC-3
# [22] = Table 7, WST-8, 48 h exposure, mean ± S.D., read-out: Cytotoxic activity (GI50) BxPC-3
# [23] = Table 7, WST-8, 48 h exposure, mean ± S.D., read-out: Cytotoxic activity (GI50) A549
# [24] = Table 7, WST-8, 48 h exposure, mean ± S.D., read-out: Cytotoxic activity (GI50) PANC-1
# [25] = Table 7, WST-8, 48 h exposure, mean ± S.D., read-out: Cytotoxic activity (GI50) HL-60
# [26] = Table 7, WST-8, 48 h exposure, mean ± S.D., read-out: Cytotoxic activity (GI50) PC-3
compound,measurement,setting,value
"CC(C)c1cc2c(cc1O)[C@@]1(C)CCCC(C)(C)C1C=C2 (stereo partly shown) [Compound 16, 6,7-dehydroferruginol]",GI50 at 48 h,[1],59.2 ± 7.56 µM
same,GI50,[2]; [7],37.5 ± 4.01 µM
same,GI50,[2]; [8],37.5 µM
same,GI50,[3]; [9],53.8 ± 9.65 µM
same,GI50,[3]; [10],53.8 µM
same,GI50,[4]; [11],46.7 ± 11 µM
same,GI50,[4]; [12],46.7 µM
same,GI50,human leukemia (HL-60); [13],66.52 ± 0.04 µM
same,GI50,human leukemia (HL-60); [14],66.5 µM
same,GI50,[5]; [15],58.1 ± 3.28 µM
same,GI50,[5]; [16],58.1 µM
"CC(C)c1cc2ccc3c(c2cc1O)CCCC3(C)C [Compound 17, 12-hydroxy simonellite]",GI50,"[6]; human, 48 h",55.4 ± 4.94 µM
same,GI50,[2]; [8],36.4 µM
same,GI50,[2]; [17],36.4 ± 8.08 µM
same,GI50,[3]; [10],42.2 µM
same,GI50,[3]; [18],42.2 ± 3.89 µM
same,GI50,[4]; [12],37.5 µM
same,GI50,[4]; [19],37.5 ± 5.72 µM
same,GI50,human leukemia (HL-60); [14],50 µM
same,GI50,human leukemia (HL-60); [20],50 ± 15.2 µM
same,GI50,[5]; [16],43.6 µM
same,GI50,[5]; [21],43.6 ± 11.9 µM
"CC(C)c1ccc2c3c(ccc2c1)C(C)(C)CCC3 [Compound 18, simonellite]",GI50,[6],> 100 µM
same,GI50,[2]; [22],> 100 µM
same,GI50,[3]; [23],> 100 µM
same,GI50,[4]; [24],> 100 µM
same,GI50,human leukemia (HL-60); [25],> 100 µM
same,GI50,[5]; [26],> 100 µM
"CC(C)C1=Cc2ccc3c(c2C(=O)C1=O)C(=O)CCC3(C)C [Compound 19, 1-oxomiltirone]",GI50,[6],20.4 ± 3.36 µM
same,GI50,[2]; [22],20.5 ± 2 µM
same,GI50,[3]; [23],24.9 ± 5.94 µM
same,GI50,[4]; [24],32.1 ± 2.75 µM
same,GI50,human leukemia (HL-60); [25],23.3 ± 6.66 µM
same,GI50,[5]; [26],19 ± 5.34 µM
"CC(C)C1=C(O)C(=O)C2=C(CC[C@H]3C(C)(C)CCC[C@]23C)C1=O [Compound 20, royleanone]",GI50 at 48 h,[1],45.7 ± 2.32 µM
same,GI50,[2]; [8],51 µM
same,GI50,[2]; [17],51 ± 10.4 µM
same,GI50,[3]; [18],30.1 ± 3.64 µM
same,GI50,[4]; [12],52.6 µM
same,GI50,[4]; [19],52.6 ± 18.8 µM
same,GI50,human leukemia (HL-60); [20],36.3 ± 7.14 µM
same,GI50,[5]; [21],27.1 ± 11.8 µM
"CC(C)C1=C(O)C(=O)C2=C(C=CC3C(C)(C)CCC[C@]23C)C1=O (stereo partly shown) [Compound 21, 6,7-dehydroroyleanone]",GI50 at 48 h,"[1]; Table 7, normal lung cells, WST-8, 48 h exposure, mean ± S.D., read-out: Cytotoxic activity (GI50) MRC-5",40.2 ± 2.06 µM
same,GI50,[2]; [7],41.7 ± 2.92 µM
same,GI50,"[2]; Homo sapiens, BXPC-3, read-out: Activity against human exocrine pancreatic tumor BxPC-3 (GI50)",41.7 µM
same,GI50,[3]; [9],48 ± 7.75 µM
same,GI50,"[3]; Homo sapiens, A549, read-out: Activity against human non-small cell lung tumor A549 (GI50)",48 µM
same,GI50,[4]; [11],51.3 ± 10 µM
same,GI50,"[4]; Homo sapiens, PANC-1, read-out: Activity against human exocrine pancreatic tumor PANC-1 (GI50)",51.3 µM
same,GI50,human leukemia (HL-60); [13],30 ± 8.3 µM
same,GI50,"human leukemia (HL-60); Homo sapiens, HL-60, read-out: Activity against human leukemia HL-60 (GI50)",30 µM
same,GI50,[5]; [15],46.3 ± 6.6 µM
same,GI50,"[5]; Homo sapiens, read-out: Activity against human prostate tumor PC-3 (GI50)",46.3 µM
"CC(C)c1cc(C=O)c([C@@]2(C)CCCC(C)(C)[C@H]2C=O)cc1O [Compound 22, 12-hydroxy-6,7-secoabieta-8,11,13-triene-6,7-dial]",GI50,[3]; [9],93.8 ± 21.4 µM
same,GI50,[3]; [10],93.8 µM
